Source: BindingDB's records for doi:10.1021/cc1000049 (Chemical Diversity Research Institute, 2010)
Values joined by “and” are separate entries in the source; they are usually repeats but may differ in a detail not shown here. Equal values may be shown once.

target: 5-hydroxytryptamine receptor 6 (Homo sapiens, UniProt P50406); assay: Radioligand Binding Assay
Source text: Radioligand binding assay using 5-HT6R.

Chain of 5-hydroxytryptamine receptor 6 (P50406 whole entry): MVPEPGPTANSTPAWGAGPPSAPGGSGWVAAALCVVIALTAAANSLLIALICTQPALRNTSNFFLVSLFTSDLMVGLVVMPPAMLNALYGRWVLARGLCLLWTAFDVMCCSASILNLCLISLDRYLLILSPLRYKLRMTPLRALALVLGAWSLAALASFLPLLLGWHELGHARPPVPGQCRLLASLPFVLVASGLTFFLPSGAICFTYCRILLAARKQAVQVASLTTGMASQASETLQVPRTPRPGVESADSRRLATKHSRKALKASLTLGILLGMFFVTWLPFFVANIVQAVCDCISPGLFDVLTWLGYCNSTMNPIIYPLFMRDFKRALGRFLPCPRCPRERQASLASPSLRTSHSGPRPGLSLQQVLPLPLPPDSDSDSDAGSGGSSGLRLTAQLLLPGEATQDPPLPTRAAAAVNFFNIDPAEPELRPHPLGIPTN

Row | SMILES | IC50 | Ki [nM]
1 | CNc1nc2c(S(=O)(=O)c3ccccc3)nnn2c2ccccc12 [PSTQ Analog, 3{1,2}] | > 300 nM | –
2 | CC(C)Nc1nc2c(S(=O)(=O)c3ccccc3)nnn2c2ccccc12 [PSTQ Analog, 3{1,3}] | 107 nM | 49.5
3 | CCC(C)Nc1nc2c(S(=O)(=O)c3ccccc3)nnn2c2ccccc12 (stereo not drawn) [PSTQ Analog, 3{1,4}] | 15.2 nM | 7.04
4 | O=S(=O)(c1ccccc1)c1nnn2c1nc(NCc1ccccc1)c1ccccc12 [PSTQ Analog, 3{1,12}] | 381 nM | –
5 | O=S(=O)(c1ccccc1)c1nnn2c1nc(NCc1ccccc1Cl)c1ccccc12 [PSTQ Analog, 3{1,13}] | 128 nM | –
6 | O=S(=O)(c1ccccc1)c1nnn2c1nc(NCC1CCCO1)c1ccccc12 (stereo not drawn) [PSTQ Analog, 3{1,21}] | 75.4 nM and 28.4 nM | 13.2
7 | O=S(=O)(c1ccccc1)c1nnn2c1nc(NCc1ccco1)c1ccccc12 [PSTQ Analog, 3{1,22}] | – | 3.54
8 | O=S(=O)(c1ccccc1)c1nnn2c1nc(NCc1cccnc1)c1ccccc12 [PSTQ Analog, 3{1,23}] | 983 nM | –
9 | O=S(=O)(c1ccccc1)c1nnn2c1nc(NC1CCCC1)c1ccccc12 [PSTQ Analog, 3{1,25}] | – | 12.9
10 | O=S(=O)(c1ccccc1)c1nnn2c1nc(NC1CCCCC1)c1ccccc12 [PSTQ Analog, 3{1,26}] | 10.8 nM | 5.01
11 | CC1CCCCC1Nc1nc2c(S(=O)(=O)c3ccccc3)nnn2c2ccccc12 (stereo not drawn) [PSTQ Analog, 3{1,27}] | 6.17 nM | 2.86
12 | CC1CCC(Nc2nc3c(S(=O)(=O)c4ccccc4)nnn3c3ccccc23)CC1 (stereo not drawn) [PSTQ Analog, 3{1,28}] | 59.5 nM | 27.6
13 | CN(C)c1nc2c(S(=O)(=O)c3ccccc3)nnn2c2ccccc12 [PSTQ Analog, 3{1,40}] | > 30 nM | –
14 | CN(C)CCN(C)c1nc2c(S(=O)(=O)c3ccccc3)nnn2c2ccccc12 [PSTQ Analog, 3{1,42}] | > 30 nM | –
15 | CN(Cc1ccccc1)c1nc2c(S(=O)(=O)c3ccccc3)nnn2c2ccccc12 [PSTQ Analog, 3{1,43}] | – | 7.65
16 | CCN(Cc1ccccc1)c1nc2c(S(=O)(=O)c3ccccc3)nnn2c2ccccc12 [PSTQ Analog, 3{1,44}] | 164 nM | –
17 | CC1CCCCN1c1nc2c(S(=O)(=O)c3ccccc3)nnn2c2ccccc12 (stereo not drawn) [PSTQ Analog, 3{1,49}] | 42.1 nM | 19.5
18 | Cc1ccc(S(=O)(=O)c2nnn3c2nc(NCC(C)c2ccccc2)c2ccccc23)cc1 (stereo not drawn) [PSTQ Analog, 3{2,10}] | 606 nM | –
19 | Cc1ccc(S(=O)(=O)c2nnn3c2nc(NCc2ccccc2)c2ccccc23)cc1 [PSTQ Analog, 3{2,12}] | 320 nM | –
20 | Cc1ccc(S(=O)(=O)c2nnn3c2nc(NCc2ccccc2Cl)c2ccccc23)cc1 [PSTQ Analog, 3{2,13}] | 528 nM | –
21 | Cc1ccc(S(=O)(=O)c2nnn3c2nc(NC(C)c2ccccc2)c2ccccc23)cc1 (stereo not drawn) [PSTQ Analog, 3{2,20}] | 740 nM | –
22 | Cc1ccc(S(=O)(=O)c2nnn3c2nc(NCC2CCCO2)c2ccccc23)cc1 (stereo not drawn) [PSTQ Analog, 3{2,21}] | 1480 nM | –
23 | CCc1ccc(S(=O)(=O)c2nnn3c2nc(NC2CCCCC2C)c2ccccc23)cc1 (stereo not drawn) [PSTQ Analog, 3{3,27}] | 572 nM | –
24 | CC(Nc1nc2c(S(=O)(=O)c3ccc(Cl)cc3)nnn2c2ccccc12)c1ccccc1 (stereo not drawn) [PSTQ Analog, 3{6,20}] | 628 nM | –
25 | CCc1ccccc1Nc1nc2c(S(=O)(=O)c3ccc(Br)cc3)nnn2c2ccccc12 [PSTQ Analog, 3{7,31}] | 1430 nM | –

Results, then the compound that gave them:

Row | IC50 | Ki [nM] | SMILES
26 | 704 nM | – | Cc1cccc(Nc2nc3c(S(=O)(=O)c4ccc(Br)cc4)nnn3c3ccccc23)c1C [PSTQ Analog, 3{7,37}]
27 | 35.9 nM | 16.7 | CCC(C)Nc1nc2c(S(=O)(=O)c3cc(C)ccc3C)nnn2c2ccccc12 (stereo not drawn) [PSTQ Analog, 3{8,4}]
28 | 770 nM | – | CCc1ccccc1Nc1nc2c(S(=O)(=O)c3cc(C)ccc3C)nnn2c2ccccc12 [PSTQ Analog, 3{8,31}]
29 | 2010 nM | – | Cc1ccc(S(=O)(=O)c2nnn3c2nc(NCCc2ccccc2)c2ccccc23)cc1C [PSTQ Analog, 3{9,9}]
30 | 602 nM | – | Cc1ccc(S(=O)(=O)c2nnn3c2nc(NCc2ccccc2C)c2ccccc23)cc1C [PSTQ Analog, 3{9,13}]
31 | 356 nM | – | Cc1ccc(S(=O)(=O)c2nnn3c2nc(NC(C)c2ccccc2)c2ccccc23)cc1C (stereo not drawn) [PSTQ Analog, 3{9,20}]
32 | 779 nM | – | Cc1ccc(S(=O)(=O)c2nnn3c2nc(NCC2CCCO2)c2ccccc23)cc1C (stereo not drawn) [PSTQ Analog, 3{9,21}]
33 | 295 nM | – | CCc1ccccc1Nc1nc2c(S(=O)(=O)c3ccc(C)c(C)c3)nnn2c2ccccc12 [PSTQ Analog, 3{9,31}]
34 | 971 nM | – | CCN(Cc1ccccc1)c1nc2c(S(=O)(=O)c3ccc(C)c(C)c3)nnn2c2ccccc12 [PSTQ Analog, 3{9,44}]
35 | 1310 nM | – | Cc1ccc(S(=O)(=O)c2nnn3c2nc(N2CCCCCC2)c2ccccc23)cc1C [PSTQ Analog, 3{9,53}]
36 | 1200 nM | – | Cc1ccc(S(=O)(=O)c2nnn3c2nc(N2CCN(c4ccccn4)CC2)c2ccccc23)cc1C [PSTQ Analog, 3{9,58}]
37 | 2180 nM | – | Cc1cc(C)c(S(=O)(=O)c2nnn3c2nc(NC(C)C)c2ccccc23)c(C)c1 [PSTQ Analog, 3{10,3}]
38 | 964 nM | – | CCC(C)Nc1nc2c(S(=O)(=O)c3c(C)cc(C)cc3C)nnn2c2ccccc12 (stereo not drawn) [PSTQ Analog, 3{10,4}]
39 | 1460 nM | – | Cc1cc(C)c(S(=O)(=O)c2nnn3c2nc(NCC2CCCO2)c2ccccc23)c(C)c1 (stereo not drawn) [PSTQ Analog, 3{10,21}]
40 | 1000 nM | – | Cc1cccc(Nc2nc3c(S(=O)(=O)c4c(C)cc(C)cc4C)nnn3c3ccccc23)c1 [PSTQ Analog, 3{10,32}]
41 | 670 nM | – | COc1cccc(Nc2nc3c(S(=O)(=O)c4c(C)cc(C)cc4C)nnn3c3ccccc23)c1 [PSTQ Analog, 3{10,33}]
42 | 1800 nM | – | O=S(=O)(c1ccccc1)c1nnn2c1nc(NCC1CCCO1)c1cc(Cl)ccc12 (stereo not drawn) [PSTQ Analog, 3{12,21}]
43 | 5740 nM | – | O=S(=O)(c1ccccc1)c1nnn2c1ncc1ccccc12 [PSTQ Analog, 8]
44 | 1050 nM | – | CCSc1nc2c(S(=O)(=O)c3ccccc3)nnn2c2ccccc12 [PSTQ Analog, 9]
45 | 1370 nM | – | COCCOc1nc2c(S(=O)(=O)c3ccccc3)nnn2c2ccccc12 [PSTQ Analog, 10]
